≈ marks a conversion by molar mass, not a printed value.
What was measured:
H-460 cells = test: FACS analysis of liposome binding by doxorubicin fluorescence; assay type: cell-based; settings: 0.01 to 10 μg/ml doxorubicin, FIG. 8
Experimental: H-460 cells were grown in cell culture plate under sterile conditions and harvested by scraping. The liposome samples (empty Thermodox liposome, ThermoDox, D4-ThermoDox, D4*-ThermoDox where D4 ThermoDox comprises SEQ ID NO:1 and D4*ThermoDox comprises SEQ ID NO:2) and doxorubicin hydrochloride were added and incubated at 37° C. with H-460 cells for 4 hours. Two different liposomes comprising different amounts of the peptide of the invention (D4-ThermoDox) were tested. The two liposomes were designated D4-ThermoDox2+2, which comprised DPPC:MSPC: DSPE-MPEG2000:D4-DSPE-MPEG2000 in a 90:10:2:2 molar ratio and D4-ThermoDox4+4, which comprised DPPC:MSPC: DSPE-MPEG2000:D4-DSPE-MPEG2000 in a 90:10:4:4 molar ratio. The D4*-ThermoDox comprised DPPC:MSPC: DSPE-MPEG2000:D4*-DSPE-MPEG2000 in a 90:10:2:2 molar ratio. After incubation, the cells were washed 4 times with PBS, and counted by FACS using doxorubicin fluorescence (excitation at 488 nm, and emission at 575 nm).
The following groups were examined: a. Non-treatment control; b. ThermoDox at approx. 0.01-10 μg (doxorubicin)/mL; c. D4-ThermoDox2+2 at approx. 0.01-10 μg (doxorubicin)/mL; d. D4-ThermoDox4+4 at approx. 0.01-10 μg (doxorubicin)/mL; e. D4*-ThermoDox at approx. 0.01-10 μg (doxorubicin)/mL; and f. doxorubicin hydrochloride 0.01-10 μg. […]

H1299 cells = test: MTT cell killing assay, H1299; assay type: cell-based; settings: Homo sapiens, NCI-H1299, H1299, 2 hours exposure, then 48 hours growth, read-out: calculated IC50
Experimental: (§1) H1299 and SPCA1 cells were plated at the density of 10^4 cells/well in 96-well plates and grown overnight. […] The cells were then washed with fresh medium, and let grown for another 48 hours. The cell viabilities after different treatments were determined using a MTT assay (26).

SPCA1 cells = test: MTT cell killing assay, SPCA1; assay type: cell-based; settings: Homo sapiens, SPCA1, 2 hours exposure, then 48 hours growth, read-out: calculated IC50
Experimental: as §1

H1299 tumor bearing mice = test: In vivo fluorescence imaging of Cy5.5 labeled peptides; settings: tail vein injection, 1 to 6 hours after injection
Experimental: Both H1299 and SPCA1 xenograft mouse models were prepared by the animal experimental center of Shanghai Cancer Institute. They were used in the in vivo imaging experiments about 3˜4 weeks after tumor cell inoculation (tumor size about 5-7 mm diameter), and humanely sacrificed afterwards. The animal study protocols were approved by the Animal Study Committee of Shanghai Jiaotong University, School of Pharmacy.
At various time points afterwards, the mice were anesthetized and imaged with an Optix in vivo fluorescence imaging system (GE Healthcare). Excepted for the Cy5.5 dye only control, all the other groups contained at least 3 mice. The representative images from the same most representative mouse in each group were shown. The images had been processed using the fluorescence lifetime gating for Cy5.5 (0.8-1.1 ns) to remove most autofluorescent interferences.
Cy5.5 fluorescence distributions inside the mice were imaged at various time points after injection. In all groups including the free dye control, fluorescences were first seen all over the body, and then quickly afterwards in the kidney and bladder. […] But in LARLLT-Cy5.5 injected mice, between 1 to 6 hours after injection, fluorescence signals in the tumor tissue were much stronger, as compared to the surrounding tissues.

[1] = biological target: epidermal growth factor receptor (EGFR) on EGFR high-expressing human lung cancer cells (H1299, SPCA1) (human, UniProt P00533 25-1210); test: cell-based or functional assay

Molecule: COc1cccc2c1C(=O)c1c(O)c3c(c(O)c1C2=O)C[C@@](O)(C(=O)CO)C[C@@H]3O[C@H]1C[C@H](N)[C@H](O)[C@H](C)O1 [free doxorubicin, doxorubicin]
- doxorubicin uptake (mean fluorescence intensity) (H-460 cells): highest
- IC50 (H1299 cells): 5.7 µg/mL (≈ 10.5 µM)
- IC50 (SPCA1 cells): 2 µg/mL (≈ 3.68 µM)

Molecule: Cy5.5
- fluorescence signal in the tumor region (H1299 tumor bearing mice): the same as background

B1: control peptide modified liposomes (scrambled peptide RTALLL conjugated to DSPE-PEG2000, inserted into preformed liposomes) (peptide)
peptide: RTALLL
modifications: peptide thiolated with SPDP, reduced with TCEP and coupled to the maleimide of DSPE-PEG2000-Mal; the lipid conjugate is inserted into liposomes
- IC50 of cell killing (MTT), doxorubicin liposomes, H1299 cells [1]: 85 µg/mL
- IC50 of cell killing (MTT), doxorubicin liposomes, SPCA1 cells [1]: 15 µg/mL

Reference: patent publication US20110200527A1, “Peptide Ligand Directed Drug Delivery” (Shanghai Jiaotong University, priority 2007, published 2011)
